pIC50: −log10 of the molar value. Read-outs that look alike come from different tables or passages of the source. *1 amine or outer side, *2 acyl side, *3 side chain or, on linkers, in order; H or OH if unused. Where a SMILES comes first, the peptide text is derived from it. [ ]: non-standard residue; d: D form. The star is where a group is joined. X1 = CC[C@@]1(O)C(=O)OCc2c1cc1n(c2=O)Cc2c-1nc1cc(F)c(C)c3c1c2[C@H](N*)CC3; Hexanoyl(6-maleimido) = O=C1C=CC(=O)N1CCCCCC(=O)*; NHCH2OCH2CO = O=C(COCN[*:1])[*:2]
Tests used:
tissue proteinase B = tissue proteinase B (Homo sapiens, UniProt P07858); experiment: In vitro enzyme digestion of linker-drug conjugates; type: biochemical; settings: for speed of enzyme digestion (in words): pH 5.0 to 7.0
Description: The linker-drug conjugate (LE14 and GGFG-Dxd) was co-incubated with tissue proteinase B in three different pH (5.0, 6.0, 7.0) buffers. Samples were taken at different time points and entered into a high-performance liquid chromatography-mass spectrometry instrument. The external standard method (with DXD as the external standard) was used to determine the release percentage of the drug.

[1] = Coupling of linker-drug conjugates with other antibodies; type: physicochemical
SK-BR-3 cell line = experiment: Killing activity of FDA026-LS13 before and after enzyme digestion; type: cell-based; settings: 144 hours
Description: SK-BR-3 cell line was selected as the experimental cells. After the sample was incubated in tissue proteinase B system (100 mM sodium acetate-acetic acid buffer, 4 mM dithiothreitol, pH 5.0) at 37° C. for 4 hours, the obtained sample was diluted with culture medium to different concentrations. 8 concentrations (1.5 to 10-fold dilution) were set from 70 nM to 0.003 nM of SN-38 concentration. […] The IC50 value was calculated by reading the […] after chemical luminescent staining with CellTiter-Glo® Luminescent Cell Viability Assay.

| SMILES | Percentage of drug release in the sample (tissue proteinase B; pH 5.0, 0 h) [%] | Percentage of drug release in the sample (tissue proteinase B; pH 5.0, 1 h) [%] | Percentage of drug release in the sample (tissue proteinase B; pH 5.0, 2 h) [%] | Percentage of drug release in the sample (tissue proteinase B; pH 5.0, 3 h) [%] | Percentage of drug release in the sample (tissue proteinase B; pH 5.0, 4 h) [%] | Percentage of drug release in the sample (tissue proteinase B; pH 5.0, 5 h) [%] | Percentage of drug release in the sample (tissue proteinase B; pH 5.0, 6 h) [%] | speed of enzyme digestion (in words) (tissue proteinase B) | Percentage of drug release in the sample (tissue proteinase B; pH 6.0, 0 h) [%] | Percentage of drug release in the sample (tissue proteinase B; pH 6.0, 1 h) [%] | Percentage of drug release in the sample (tissue proteinase B; pH 6.0, 2 h) [%] | Percentage of drug release in the sample (tissue proteinase B; pH 6.0, 3 h) [%] | Percentage of drug release in the sample (tissue proteinase B; pH 6.0, 4 h) [%] | Percentage of drug release in the sample (tissue proteinase B; pH 6.0, 5 h) [%] | Percentage of drug release in the sample (tissue proteinase B; pH 6.0, 6 h) [%] | Percentage of drug release in the sample (tissue proteinase B; pH 7.0, 0 h) [%] | Percentage of drug release in the sample (tissue proteinase B; pH 7.0, 1 h) [%] | Percentage of drug release in the sample (tissue proteinase B; pH 7.0, 2 h) [%] | Percentage of drug release in the sample (tissue proteinase B; pH 7.0, 3 h) [%] | Percentage of drug release in the sample (tissue proteinase B; pH 7.0, 4 h) [%] | other results |
| --- | --- | --- | --- | --- | --- | --- | --- | --- | --- | --- | --- | --- | --- | --- | --- | --- | --- | --- | --- | --- | --- |
| CC[C@@]1(O)C(=O)OCc2c1cc1n(c2=O)Cc2c-1nc1cc(F)c(C)c3c1c2[C@H](NC(=O)COCNC(=O)CNC(=O)[C@H](Cc1ccccc1)NC(=O)CNC(=O)CNC(=O)CCCCCN1C(=O)C=CC1=O)CC3 [GGFG-Dxd, reference compound] ({Hexanoyl(6-maleimido)}-GGFG[NHCH2OCH2CO]-X1) | 21.62 | 25 | 25.85 | 27.76 | 29.72 | 31.69 | 34.17 | slow speed of enzyme digestion | 23.58 | 24.8 | 27.02 | 29.29 | 31.37 | 33.05 | 35.95 | 22.98 | 26.53 | 29.52 | 31.95 | 34.78 | Percentage of drug release in the sample (tissue proteinase B; pH 7.0, 5 h): 36.17%; Percentage of drug release in the sample (tissue proteinase B; pH 7.0, 6 h): 38.25%; aggregation ratio when coupled with other antibodies [1]: high aggregation ratio; precipitation when coupled with other antibodies [1]: produces precipitation |
| CC[C@@]1(O)C(=O)OCc2c1cc1n(c2=O)Cc2c-1nc1cc(F)c(C)c3c1c2[C@@H](NC(=O)COCN(CCS(C)(=O)=O)C(=O)OCc1ccc(NC(=O)[C@H](C)NC(=O)[C@@H](NC(=O)CCCCCN2C(=O)C=CC2=O)C(C)C)cc1)CC3 [LE14] | 15 | 96.93 | 98.35 | 99.01 | 99.21 | 99.32 | 97.39 | quickly enzymatically digested | 14.28 | 95.98 | 96.8 | 98.45 | 98.81 | 98.9 | 99 | 17.59 | 98.05 | 99.08 | 99.33 | 99.2 | Percentage of drug release in the sample (tissue proteinase B; pH 7.0, 5 h): 100%; Percentage of drug release in the sample (tissue proteinase B; pH 7.0, 6 h): 99.39% |
| CCc1c2c(nc3ccc(O)cc13)-c1cc3c(c(=O)n1C2)COC(=O)[C@]3(O)CC [SN-38, 7-ethyl-10-hydroxycamptothecin] | – | – | – | – | – | – | – | – | – | – | – | – | – | – | – | – | – | – | – | – | pIC50 (SK-BR-3 cell line; read-out: IC50 (based on SN-38 equivalent) Before Enzyme Digestion): 8.15; pIC50 (SK-BR-3 cell line; after tissue proteinase B system, pH 5.0, 37° C., 4 hours, read-out: IC50 (based on SN-38 equivalent) After Enzyme Digestion): 8.14 |
